Measured values published in PubChem BioAssay (NCI).
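All cell lines were grown in 96-well plates and treated with compound for 48 hours. GI50 = concentration required for 50% inhibition of growth. Definition used: TGI = concentration required for complete inhibition of growth.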

How the values were obtained:
Assay in all cases: NCI tumour cell line growth inhibition, 48 h
SK-MEL-2 melanoma = test system: SK-MEL-2 melanoma
SK-OV-3 ovarian = test system: SK-OV-3 ovarian
SK-MEL-5 melanoma = test system: SK-MEL-5 melanoma
OVCAR-3 ovarian = test system: OVCAR-3 ovarian
RXF 393 renal = test system: RXF 393 renal
A498 renal = test system: A498 renal
SK-MEL-28 melanoma = test system: SK-MEL-28 melanoma
DMS 114 small cell lung = test system: DMS 114 small cell lung
SR leukemia = test system: SR leukemia
DLD-1 colon = test system: DLD-1 colon
LXFL 529 NSCLC = test system: LXFL 529 NSCLC
SNB-78 CNS = test system: SNB-78 CNS

Row | Structure (SMILES) | GI50 (SK-MEL-2 melanoma) [µM] | TGI (SK-MEL-2 melanoma) [µM] | GI50 (SK-OV-3 ovarian) [µM] | TGI (SK-OV-3 ovarian) [µM] | GI50 (SK-MEL-5 melanoma) [µM] | TGI (SK-MEL-5 melanoma) [µM] | GI50 (OVCAR-3 ovarian) [µM] | TGI (OVCAR-3 ovarian) [µM] | GI50 (RXF 393 renal) [µM] | TGI (RXF 393 renal) [µM] | GI50 (A498 renal) [µM] | TGI (A498 renal) [µM] | GI50 (SK-MEL-28 melanoma) [µM] | TGI (SK-MEL-28 melanoma) [µM] | TGI (DMS 114 small cell lung) [µM] | TGI (SR leukemia) [µM] | TGI (DLD-1 colon) [µM] | TGI (LXFL 529 NSCLC) [µM] | TGI (SNB-78 CNS) [µM]
1 | C[C@@H]1CC[C@H]2C(COC/C=C/COCC3=C(C(F)(F)F)O[C@@H]4O[C@@]5(C)CC[C@H]6[C@H](C)CC[C@@H]3[C@@]46OO5)=C(C(F)(F)F)O[C@@H]3O[C@@]4(C)CC[C@@H]1[C@]32OO4 | 0.387 | > 100 | > 100 | > 100 | 0.0866 | > 100 | < 0.0114 | 0.336 | 1.64 | > 20.7 | 1.54 | > 100 | 63.9 | > 100 |  |  |  |  | 
2 | CC(C)(C)C1CCC2(CC1)CCN(CCCN1CCOCC1)CC2 |  | 53.2 |  | > 100 |  | 21.4 |  | > 100 |  | > 82.3 |  | > 57.4 |  | 33.2 | 33.9 | > 100 | > 100 | 21.5 | 91.9
3 | Cn1cnc([N+](=O)[O-])c1SCC(=O)O |  | > 100 |  | > 100 |  | > 100 |  | > 100 |  | > 100 |  | > 100 |  | > 100 |  | > 100 |  |  | 
4 | COc1cc2ccc1-c1cc(ccc1O)CC1c3cc4c(cc3CCN1C)Oc1c(OC)cc3c(c1O4)C(C2)N(C)CC3 (configuration not stated) |  | 3.38 |  |  |  | 3.52 |  | 3.93 |  | 3.24 |  | 3.79 |  | 2.89 | 3.48 | 4 | 5.27 | 3.23 | 5.23
5 | CC(C)CNc1nc(N)[nH]c(=O)c1NC=O |  | > 100 |  | > 100 |  | > 100 |  | > 100 |  | > 100 |  | > 100 |  | > 100 |  |  |  |  | 
6 | O=C(c1cc(Br)ccc1O)c1cc(Br)ccc1O |  | 30.1 |  | 35.8 |  | 25.4 |  | 29.2 |  | 27.9 |  | 31.4 |  | 31.1 |  |  |  |  | 
7 | Oc1cc(O)cc(/C=C/c2ccc(O)c(O)c2)c1 |  | 16 |  | 47.7 |  | > 49.1 |  | > 100 |  | 45.7 |  | > 70 |  | > 100 | 22.1 |  | > 31.6 |  | 76.5
8 | O=C(O)c1ccccn1 |  | > 100 |  |  |  | > 100 |  | > 100 |  | > 100 |  | > 100 |  | > 100 |  | > 100 |  |  | 
9 | CN(C)c1ccc(C2CC(=O)C(C#N)=C(c3ccccc3)NN2C)cc1 (configuration not stated) |  | 57.2 |  | > 100 |  | 11.9 |  |  |  | > 100 |  | > 100 |  | > 100 | > 100 | > 100 | > 100 | > 100 | > 100
10 | CN(C)[C@@H]1C(=O)C(C(=O)NCNCCCC(=O)O)=C(O)[C@@]2(O)C(=O)C3=C(O)c4c(O)cccc4[C@@](C)(O)[C@H]3C[C@@H]12 |  | > 100 |  | > 100 |  | > 100 |  | > 100 |  | > 100 |  | > 100 |  | > 100 | > 100 | > 100 | > 100 | > 100 | > 100
11 | N=C(N)c1ccc(-c2ccc(-c3ccc(Cl)cn3)s2)cc1 |  |  | 1.83 | 3.49 | 1.77 | 3.19 |  |  |  |  | 3.82 | 17.3 | 1.67 | 3.07 |  |  |  |  | 
